# Measured values published in patent US20260183411A1, “TARGETING SORTILIN” (priority 2024, published 2026).
# Bridges are numbered along the chain shown (N, C = ends). Where no end group is shown, it is not given here. [ ]: non-standard residue; d: D form. conjugation handle = not defined here; tBuAla = CC(C)(C)C[C@H](N)C(=O)O; Tle = CC(C)(C)[C@H](N)C(=O)O; Nle = CCCC[C@H](N)C(=O)O
# Tests used:
# [1] = system: housekeeping gene mRNA; assay: Rat CNS delivery, intrathecal, 28-day (RT-qPCR); assay type: in vivo; details: IT, 900 μg siRNA
# Procedure: SORT1 peptide 3 conjugate was prepared as described above. The SORT1 peptide 3 conjugate or a benchmark lipid were administered to rats intrathecally (IT), by injection into the spinal cord, for 28 days at 900 μg of siRNA. The delivery efficacy of the SORT1 peptide 3 conjugate was measured by measuring the amount of the housekeeping gene mRNA remaining in tissue samples at the end of the 28-day dosing regimen via RT-qPCR of samples from various parts of the rat CNS: lumbar spinal cord (LSC), cervical spinal cord (CSC), brainstem (BS), cerebellum (CB), somatosensory cortex (SSC), frontal cortex (FC), hippocampus (HC), thalamus (TH), liver, and heart. 28 day post-injection rats were sacrificed, and tissues collected (brain, spinal cord, heart, liver). Tissues were flash frozen and prepared for RT-qPCR detection of target housekeeping gene mRNA knockdown.
# To characterize the amount of mRNA present in tissue samples from rats treated with SORT1 peptide 3 conjugates following the 28-day dosing regimen, control rats were injected with an equivalent volume of artificial cerebrospinal fluid (aCSF) as a comparative negative control.
# [2] = system: housekeeping gene mRNA; assay: Mouse CNS delivery, intrathecal, 7-day (RT-qPCR); assay type: in vivo; details: IT dosing
# Procedure: These conjugates were administered to C57BL/6 mice intrathecally (IT), by injection into the spinal canal, for 7 days at 150 μg of siRNA. The delivery efficacy of the various peptide conjugates was measured by measuring the amount of the housekeeping gene mRNA remaining in tissue samples at the end of the 7-day dosing regimen via RT-qPCR of samples from various parts of the mouse CNS: lumbar spinal cord (LSC; FIG. 24A), brainstem (BS; FIG. 24B), cerebellum (CB; FIG. 24C), frontal cortex (FC; FIG. 24D), somatosensory cortex (SSC; FIG. 24E), hippocampus (HC; FIG. 24F), thalamus (TH;
# FIG. 24G), liver (FIG. 24H), and heart (FIG. 24I). 7 days post-injection mice were sacrificed, and tissues collected (brain, spinal cord, heart, liver). Tissues were flash frozen and prepared for RT-qPCR detection of target housekeeping gene mRNA knockdown (quantified below in Table 19). Furthermore, histological studies were performed in the brain and cervical spinal cord. In situ hybridization using miRNAscope and a probe that binds the housekeeping gene siRNA was used to assess the localization of the SORT1 peptide conjugates in cross sections of the brain and cervical spinal cord.
# To characterize the amount of mRNA present in tissue samples following 7 days from mice treated with SORT1 peptide conjugates, control mice were injected with an equivalent volume of artificial cerebrospinal fluid (aCSF) as a comparative negative control.
# [3] = system: housekeeping gene mRNA; assay: Mouse CNS delivery, intracerebroventricular, 14/60-day (RT-qPCR); assay type: in vivo; details: for ICV % housekeeping gene knockdown relative to aCSF: 14-day, ICV dosing
# Procedure: The delivery of the SORT1 peptide conjugates was further tested over longer dosing regimens of 14 days and 60 days. […] The delivery of the siRNA-peptide-conjugated was measured at the end of the 14- or 60-day dosing regimen via RT-qPCR of samples from various parts of the mouse CNS: lumbar spinal cord (LSC; FIGS. 25A and 25B), brainstem (BS; FIGS. 25C and 25D), cerebellum (CB; FIGS. 25E and 25F), frontal cortex (FC; FIGS. 26A and 26B), somatosensory cortex (SSC; FIGS. 26C and 26D), hippocampus (HC; FIGS. 26E and 26F), thalamus (TH; FIGS. 27A and 27B), liver (FIGS. 27C and 27D), and heart (FIGS. 27E and 27F). 14- and 60-days post-injection mice were sacrificed, and tissues collected (brain, spinal cord, heart, liver). Tissues were flash frozen and prepared for RT-qPCR detection of target housekeeping gene mRNA knockdown (quantified below in Table 20).
# [4] = target: T1, Human SORT1 (78-755)-His (human, UniProt Q99523 78-755); assay: SPR (Biacore 8K), SORT1 on CM5 chip, unconjugated peptide with conjugation handles as analyte, 1:1 model
# T1 construct: range 78-755; Amine-coupled to CM5 chip for SPR; Two suppliers are named (Acrobiosystems, GenScript)
# T1 sequence (looked up): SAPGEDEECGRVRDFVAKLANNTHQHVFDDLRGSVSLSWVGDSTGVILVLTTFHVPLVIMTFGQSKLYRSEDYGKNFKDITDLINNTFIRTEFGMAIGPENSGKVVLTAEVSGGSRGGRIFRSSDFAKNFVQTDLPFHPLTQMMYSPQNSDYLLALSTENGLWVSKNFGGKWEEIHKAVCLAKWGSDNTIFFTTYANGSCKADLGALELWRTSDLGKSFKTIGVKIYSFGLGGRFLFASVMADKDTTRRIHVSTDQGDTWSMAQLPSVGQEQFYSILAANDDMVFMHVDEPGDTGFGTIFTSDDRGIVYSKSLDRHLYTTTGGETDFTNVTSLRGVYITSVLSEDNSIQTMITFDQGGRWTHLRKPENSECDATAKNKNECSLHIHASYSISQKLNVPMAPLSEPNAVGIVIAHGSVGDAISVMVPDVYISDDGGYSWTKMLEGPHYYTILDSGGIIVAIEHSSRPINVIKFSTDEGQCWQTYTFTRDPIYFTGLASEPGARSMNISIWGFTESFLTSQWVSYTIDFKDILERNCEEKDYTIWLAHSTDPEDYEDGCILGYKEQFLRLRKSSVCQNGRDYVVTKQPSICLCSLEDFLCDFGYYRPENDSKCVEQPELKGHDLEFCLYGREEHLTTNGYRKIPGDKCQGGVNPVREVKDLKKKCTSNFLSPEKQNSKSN
# Procedure: (§1) SPR analysis was performed on Series S CM5 chips (Cytiva) using a Biacore 8K instrument (Cytiva). Sensorgrams were double-referenced by subtracting the response on both a reference flow cell and a blank sample. Human SORT1 (78-755)-His (Acrobiosystems), human SORT1 (78-755)-His(GenScript), mouse SORT1 (76-753)-His (R&D Systems), rat SORT1 (76-752)-His (GenScript), and cyno SORT1 (76-753)-His (GenScript) were diluted to 20-60 μg/mL in 10 mM sodium acetate pH 4.5 buffer and immobilized onto Series S CM5 chips using amine coupling at a flow rate of 10 μL/min for 45-100 s.
# (§2) Ten start-up cycles and a blank cycle preceded each analysis run. The runs were performed by sequential injections of analyte (0-20 nM, 3-fold serial dilutions) with a 90 s association and 900 s dissociation at a flow rate of 30 μL/min, followed by two regeneration cycles with 2 M MgCl2 for 90 s at a flow rate of 10 μL/min. […] Five start-up cycles and a blank cycle preceded each analysis run. The runs were performed by sequential injections of analyte (0-25 nM) with a 150 seconds (s) association and 300 s dissociation at a flow rate of 30 μL/min, followed by a regeneration with 2 M MgCl₂ for 200 s at a flow rate of 10 μL/min. The kinetic rate constants (kₐ and kd) and the equilibrium binding constant (Kd) were calculated using a 1:1 kinetic binding model on the Biacore Insight Evaluation Software (Cytiva).
# (§3) SPR analysis was performed on Series S CM5 chips (Cytiva) using a Biacore 8K instrument (Cytiva). Sensorgrams were double-referenced by subtracting the response on both a reference flow cell and a blank sample. The SPR analysis was conducted using four different SORT1 species: Human SORT1, Mouse SORT1, Rat SORT1, and Cyno SORT1. The samples were prepared according to the general procedure described above herein. The kinetic rate constants (ka and […]) and the equilibrium binding constant (Kd) were calculated using a 1:1 kinetic binding model on the Biacore Insight Evaluation Software (Cytiva).
# [5] = target: T2, rat SORT1 (76-752)-His (rat, UniProt O54861 76-752); assay: as above
# T2 construct: range 76-752; Amine-coupled to CM5 chip for SPR
# T2 sequence (looked up): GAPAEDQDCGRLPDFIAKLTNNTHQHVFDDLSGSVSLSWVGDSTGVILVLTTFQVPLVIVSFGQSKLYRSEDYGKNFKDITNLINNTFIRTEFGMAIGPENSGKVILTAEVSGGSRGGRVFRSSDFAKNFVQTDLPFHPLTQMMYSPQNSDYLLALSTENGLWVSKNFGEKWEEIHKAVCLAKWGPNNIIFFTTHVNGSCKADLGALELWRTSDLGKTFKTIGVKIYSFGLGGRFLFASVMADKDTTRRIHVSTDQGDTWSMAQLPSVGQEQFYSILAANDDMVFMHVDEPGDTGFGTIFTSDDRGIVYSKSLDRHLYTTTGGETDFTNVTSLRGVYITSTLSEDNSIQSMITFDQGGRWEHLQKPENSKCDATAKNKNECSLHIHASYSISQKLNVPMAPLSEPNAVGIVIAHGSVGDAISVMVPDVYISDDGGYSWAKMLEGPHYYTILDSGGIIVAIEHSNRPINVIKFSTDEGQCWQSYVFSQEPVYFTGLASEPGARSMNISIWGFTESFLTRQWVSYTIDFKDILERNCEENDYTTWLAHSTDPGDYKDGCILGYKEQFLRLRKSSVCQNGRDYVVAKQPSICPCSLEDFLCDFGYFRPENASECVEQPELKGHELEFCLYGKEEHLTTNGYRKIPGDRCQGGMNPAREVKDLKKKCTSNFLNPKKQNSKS
# Procedure: as §1, §2, §3
# [6] = target: T3, cyno SORT1 (76-753)-His (cyno, UniProt A0A2K5VHG2 74-751); assay: as above
# T3 construct: range 76-753; Amine-coupled to CM5 chip for SPR
# T3 sequence: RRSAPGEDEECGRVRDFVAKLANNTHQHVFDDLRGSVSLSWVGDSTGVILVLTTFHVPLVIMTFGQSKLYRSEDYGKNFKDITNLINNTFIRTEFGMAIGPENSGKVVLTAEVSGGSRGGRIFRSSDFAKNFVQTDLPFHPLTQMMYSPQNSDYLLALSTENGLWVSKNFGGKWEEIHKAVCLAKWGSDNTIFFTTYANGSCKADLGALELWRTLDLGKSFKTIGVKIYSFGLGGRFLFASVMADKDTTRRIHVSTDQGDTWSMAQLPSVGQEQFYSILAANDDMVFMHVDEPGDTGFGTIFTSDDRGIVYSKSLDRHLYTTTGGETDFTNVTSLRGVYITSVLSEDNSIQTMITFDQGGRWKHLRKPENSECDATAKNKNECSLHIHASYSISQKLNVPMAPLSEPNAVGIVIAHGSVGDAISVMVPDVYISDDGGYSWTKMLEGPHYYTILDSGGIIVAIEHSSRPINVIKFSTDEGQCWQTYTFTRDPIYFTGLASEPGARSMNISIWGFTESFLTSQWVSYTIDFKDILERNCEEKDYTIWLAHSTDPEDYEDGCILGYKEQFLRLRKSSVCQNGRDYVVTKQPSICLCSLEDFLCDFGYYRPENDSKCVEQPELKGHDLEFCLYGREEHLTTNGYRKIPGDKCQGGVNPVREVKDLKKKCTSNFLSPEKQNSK
# Procedure: as §1, §2, §3
molecule,measurement,setting,value
"SORT1 peptide 3 conjugate (RWCENKR[Nle]FTCRQ[Tle][tBuAla]; disulfide 3-11 (inferred); not fully specified (residue 6); printed as RWCENKR(Nle)FTCRQ(B13)(F02); also: conjugated via a linker to siRNA targeting a housekeeping gene mRNA, attachment presumably at the introduced Lys)",housekeeping gene mRNA in the CNS relative to the aCSF control,[1],significantly reduced
same,IT % housekeeping gene knockdown relative to aCSF,[2]; BS,77.0%
same,IT % housekeeping gene knockdown relative to aCSF,[2]; CB,53.6%
same,IT % housekeeping gene knockdown relative to aCSF,[2]; FC,50.1%
same,IT % housekeeping gene knockdown relative to aCSF,[2]; HC (deep brain),66.6%
same,IT % housekeeping gene knockdown relative to aCSF,[2]; Heart,47.0%
same,IT % housekeeping gene knockdown relative to aCSF,"[2]; LSC, 150 μg siRNA",94.7%
same,IT % housekeeping gene knockdown relative to aCSF,[2]; Liver,0.0%
same,IT % housekeeping gene knockdown relative to aCSF,[2]; SSC,61.4%
same,IT % housekeeping gene knockdown relative to aCSF,[2]; TH (deep brain),33.4%
same,ICV % housekeeping gene knockdown relative to aCSF,[3]; BS,79.6%
same,ICV % housekeeping gene knockdown relative to aCSF,[3]; CB,66.6%
same,ICV % housekeeping gene knockdown relative to aCSF,[3]; FC,72.6%
same,ICV % housekeeping gene knockdown relative to aCSF,[3]; HC (deep brain),72.1%
same,ICV % housekeeping gene knockdown relative to aCSF,[3]; Heart,7.9%
same,knockdown of the target gene in peripheral tissues (heart and liver) relative to aCSF,"[3]; ICV, after 14 days",No significant knockdown
same,ICV % housekeeping gene knockdown relative to aCSF,"[3]; LSC, 100 μg siRNA",84.8%
same,ICV % housekeeping gene knockdown relative to aCSF,[3]; Liver,8.7%
same,ICV % housekeeping gene knockdown relative to aCSF,[3]; SSC,72.6%
same,ICV % housekeeping gene knockdown relative to aCSF,[3]; TH (deep brain),76.2%
"RWCENK(conjugation handle)R[Nle]FTCRQ[Tle][tBuAla] (disulfide 3-11 (inferred); reading uncertain; also: K6 conjugation handle not given here, printed as RWCENKR(Nle)FTCRQ(B13)(F02)) [SORT1 peptide 3 (w/conjugation handles), unconjugated]",Kd,[4],0.168 nM
same,Kd,[5],1.16 nM
same,Kd,[6],0.191 nM
